Measured values: patent US9695155B2, “Herbicidal substituted pyrimidinyloxy benzene compounds” (E. I. DU PONT DE NEMOURS AND COMPANY, priority 2013, dated 2017)

Assays:
johnsongrass = experiment: Test C postemergence; format: in vivo, Sorghum halepense; conditions: Sorghum halepense, post-emergence
How it was run: (§1)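 Greenhouse herbicide screen. Pre: seeded loam/sand, sprayed at planting. Post: 1–4 leaf plants (2–18 cm) in peat-based mix. Formulation: solvent mixture + surfactant, non-phytotoxic. Readout: visual % control vs untreated, 13–15 d; dash = not tested.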

galium = experiment: Test C preemergence; format: in vivo, Galium aparine; conditions: Galium, pre-emergence
How it was run: as §1

soybean = experiment: Test C postemergence; format: in vivo, Glycine max; conditions: Glycine max, post-emergence
How it was run: as §1

giant foxtail = experiment: Test C postemergence; format: in vivo, Setaria faberii; conditions: Setaria faberi, post-emergence
How it was run: as §1

morningglory = experiment: Test A preemergence; format: in vivo, Ipomoea spp.; conditions: Ipomoea, pre-emergence, 240 h, read-out: Morningglory plant response rating
How it was run: (§2)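 Compounds in non-phytotoxic solvent with surfactant applied as soil spray preemergence, or postemergence to plants 2-10 cm at one- to two-leaf stage, in loam/sand. After approximately 10 days in greenhouse, injury rated visually versus untreated controls, 0 (no effect) to 100 (complete control).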

sedge, umbrella = experiment: Test B flooded paddy test; format: in vivo, Cyperus difformis; conditions: Cyperus difformis, Flood, 250 g ai/ha; 0 to 100 scale where 0 is no effect and 100 is complete control; read-out: Plant response rating, Sedge, Umbrella
How it was run: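 Visual ratings on a 0 to 100 scale, where 100 means complete control, compared treated plants with controls after 13 to 15 days in a greenhouse. Treatment went into paddy water 3 cm deep over the soil, applied to plants at the 2-leaf stage.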

Italian ryegrass = experiment: Test C preemergence; format: in vivo, Lolium multiflorum; conditions: Lolium multiflorum, pre-emergence
How it was run: as §1

large (Lg) crabgrass = experiment: Test C postemergence; format: in vivo, Digitaria sanguinalis; conditions: Digitaria sanguinalis, post-emergence
Description: (§3) Seeds of plant species selected from blackgrass (Alopecurus myosuroides), Italian ryegrass (Lolium multiflorum), wheat, winter (winter wheat, Triticum aestivum), galium (catchweed bedstraw, Galium aparine), corn (Zea mays), large (Lg) crabgrass (Digitaria sanguinalis), giant foxtail (Setaria faberii), johnsongrass (Sorghum halepense), lambsquarters (Chenopodium album), morningglory (Ipomoea coccinea), yellow nutsedge (Cyperus esculentus), pigweed (Amaranthus retroflexus), ragweed (common ragweed, Ambrosia elatior), soybean (Glycine max), barnyardgrass (Echinochloa crus-galli), oilseed rape (Brassica napus), waterhemp (common waterhemp, Amaranthus rudis), kochia (Kochia scoparia), wild oat (Avena fatua), surinam grass (Brachiaria decumbens), foxtail, green (green foxtail, Setaria viridis), goosegrass (Eleusine indica), bromegrass, downy (downy bromegrass, Bromus tectorum), nightshade (eastern black nightshade, Solanum ptycanthum), cocklebur (common cocklebur, Xanthium strumarium), cupgrass, woolly (woolly cupgrass, Eriochloa villosa), bermudagrass (Cynodon dactylon), sunflower, (common oilseed sunflower, Helianthus annuus), Russian thistle (Salsola kali), and velvetleaf (Abutilon theophrasti) were planted into a blend of loam soil and sand and treated preemergence with test chemicals formulated in a non-phytotoxic solvent mixture which included a surfactant.
(§4) At the same time, plants selected from these crop and weed species and also barley, winter (winter barley, Hordeum vulgare), windgrass (Apera spica-venti), chickweed (common chickweed, Stellaria media), deadnettle (henbit deadnettle, Lamium amplexicaule), and canarygrass (littleseed canarygrass, Phalaris minor) were planted in pots containing Redi-Earth® planting medium (Scotts Company, 14111 Scottslawn Road, Marysville, Ohio 43041) comprising spaghnum peat moss, vermiculite, wetting agent and starter nutrients and treated with postemergence applications of test chemicals formulated in the same manner. Plants ranged in height from 2 to 18 cm (1- to 4-leaf stage) for postemergence treatments. Treated plants and controls were maintained in a greenhouse for 13 to 15 days, after which time all species were compared to controls and visually evaluated. Plant response ratings, summarized in Table C, are based on a scale of 0 to 100 where 0 is no effect and 100 is complete control. A dash (-) response means no test result.

wheat [1] = experiment: Test A postemergence; format: in vivo, Triticum aestivum; conditions: Triticum aestivum, post-emergence, 240 h
How it was run: as §2

velvetleaf = experiment: Test C postemergence; format: in vivo, Abutilon theophrasti; conditions: Abutilon theophrasti, post-emergence
How it was run: as §1

pigweed [2] = experiment: Test A preemergence; format: in vivo, Amaranthus retroflexus; conditions: Amaranthus retroflexus, pre-emergence, 240 h, read-out: Pigweed plant response rating
How it was run: as §2

yellow nutsedge = experiment: Test C postemergence; format: in vivo, Cyperus esculentus; conditions: Cyperus, post-emergence
Description: as §3, §4

wheat [3] = experiment: Test A preemergence; format: in vivo, Triticum aestivum; conditions: Triticum aestivum, pre-emergence, 240 h, read-out: Wheat plant response rating
How it was run: as §2

pigweed [4] = experiment: Test A postemergence; format: in vivo, Amaranthus retroflexus; conditions: Amaranthus retroflexus, post-emergence
How it was run: as §2

[5] = 125 g ai/ha, 0 to 100 scale where 0 is no effect and 100 is complete control
[6] = 500 g ai/ha, 0 to 100 scale, 0 no effect, 100 complete control, approx. 10 days

Clc1cnc(Oc2ccccc2-n2cc(Br)cn2)nc1 [Compound 7, 2-[2-(4-bromo-1H-pyrazol-1-yl)phenoxy]-5-chloropyrimidine]
20%: pest or weed control at 125 g/ha (morningglory; [5]) | pest or weed control at 250 g/ha (large (Lg) crabgrass; 250 g ai/ha, postemergence, read-out: Plant response rating (0 to 100), Crabgrass, Large) | pest or weed control at 250 g/ha (yellow nutsedge; 250 g ai/ha, postemergence, read-out: Plant response rating (0 to 100), Nutsedge, Yellow) | plant injury at 500 g/ha (wheat [3]; [6])
98%: Soybean plant response rating (crop injury, 0-100 scale) at 125 g/ha (soybean; 125 g ai/ha, postemergence, read-out: Plant response rating (0 to 100), Soybean) | Soybean plant response rating (crop injury, 0-100 scale) at 250 g/ha (soybean; 250 g ai/ha, postemergence) | Soybean plant response rating (crop injury, 0-100 scale) at 62 g/ha (soybean; Postemergence, 62 g ai/ha, scale 0 to 100 (0 no effect, 100 complete control))
40%: pest or weed control at 250 g/ha (Italian ryegrass; 250 g ai/ha, preemergence, scale 0 (no effect) to 100 (complete control), read-out: Ryegrass, Italian plant response rating) | pest or weed control at 31 g/ha (velvetleaf; Postemergence, 31 g ai/ha, scale 0 to 100 (0 no effect, 100 complete control), 13 to 15 days, read-out: Plant response rating, Velvetleaf)
90%: pest or weed control at 125 g/ha (pigweed [2]; [5])
5%: pest or weed control at 125 g/ha (johnsongrass; 125 g ai/ha, postemergence, read-out: Plant response rating (0 to 100), Johnsongrass) | pest or weed control at 62 g/ha (giant foxtail; Postemergence, 62 g ai/ha, scale 0 to 100 (0 no effect, 100 complete control), read-out: Plant response rating, Foxtail, Giant) | pest or weed control at 125 g/ha (Italian ryegrass; 125 g ai/ha, preemergence, scale 0 (no effect) to 100 (complete control), read-out: Ryegrass, Italian plant response rating) | pest or weed control at 31 g/ha (large (Lg) crabgrass; Postemergence, 31 g ai/ha, scale 0 to 100 (0 no effect, 100 complete control), 13 to 15 days, read-out: Plant response rating, Crabgrass, Large) | pest or weed control at 62 g/ha (large (Lg) crabgrass; Postemergence, 62 g ai/ha, scale 0 to 100 (0 no effect, 100 complete control), read-out: Plant response rating, Crabgrass, Large)
50%: plant injury at 500 g/ha (wheat [1]; 500 g ai/ha, 0 to 100 scale, 0 no effect, 100 complete control, read-out: Plant response rating Wheat) | pest or weed control at 62 g/ha (velvetleaf; Postemergence, 62 g ai/ha, scale 0 to 100 (0 no effect, 100 complete control), read-out: Plant response rating, Velvetleaf)
30%: plant injury at 125 g/ha (wheat [1]; 125 g ai/ha, 0 to 100 scale where 0 is no effect and 100 is complete control, read-out: Plant response rating, Wheat)
10%: pest or weed control at 250 g/ha (johnsongrass; 250 g ai/ha, postemergence, read-out: Plant response rating (0 to 100), Johnsongrass) | pest or weed control at 125 g/ha (giant foxtail; 125 g ai/ha, postemergence, read-out: Plant response rating (0 to 100), Foxtail, Giant) | pest or weed control at 250 g/ha (giant foxtail; 250 g ai/ha, postemergence, read-out: Plant response rating (0 to 100), Foxtail, Giant) | pest or weed control at 125 g/ha (large (Lg) crabgrass; 125 g ai/ha, postemergence, read-out: Plant response rating (0 to 100), Crabgrass, Large) | pest or weed control at 31 g/ha (yellow nutsedge; Postemergence, 31 g ai/ha, scale 0 to 100 (0 no effect, 100 complete control), 13 to 15 days, read-out: Plant response rating, Nutsedge, Yellow)
0%: pest or weed control at 31 g/ha (johnsongrass; Postemergence, 31 g ai/ha, scale 0 to 100 (0 no effect, 100 complete control), 13 to 15 days, read-out: Plant response rating, Johnsongrass) | pest or weed control at 62 g/ha (johnsongrass; Postemergence, 62 g ai/ha, scale 0 to 100 (0 no effect, 100 complete control), read-out: Plant response rating, Johnsongrass) | pest or weed control at 31 g/ha (giant foxtail; Postemergence, 31 g ai/ha, scale 0 to 100 (0 no effect, 100 complete control), 13 to 15 days, read-out: Plant response rating, Foxtail, Giant) | pest or weed control at 62 g/ha (Italian ryegrass; 62 g ai/ha, preemergence, scale 0 (no effect) to 100 (complete control), read-out: Ryegrass, Italian plant response rating) | pest or weed control at 31 g/ha (Italian ryegrass; Preemergence, 31 g ai/ha, scale 0 to 100, 0 no effect, 100 complete control, read-out: Plant response rating, Ryegrass, Italian) | plant injury at 125 g/ha (wheat [3]; [5])
85%: pest or weed control at 31 g/ha (galium; Preemergence, 31 g ai/ha, scale 0 to 100, 0 no effect, 100 complete control, read-out: Plant response rating, Galium) | Soybean plant response rating (crop injury, 0-100 scale) at 31 g/ha (soybean; Postemergence, 31 g ai/ha, scale 0 to 100 (0 no effect, 100 complete control), 13 to 15 days) | pest or weed control at 125 g/ha (velvetleaf; 125 g ai/ha, postemergence, read-out: Plant response rating (0 to 100), Velvetleaf) | pest or weed control at 250 g/ha (velvetleaf; 250 g ai/ha, postemergence, read-out: Plant response rating (0 to 100), Velvetleaf)
100%: pest or weed control at 62 g/ha (galium; 62 g ai/ha, preemergence, scale 0 (no effect) to 100 (complete control), read-out: Galium plant response rating) | pest or weed control at 125 g/ha (galium; 125 g ai/ha, preemergence, scale 0 (no effect) to 100 (complete control), read-out: Galium plant response rating) | pest or weed control at 250 g/ha (galium; 250 g ai/ha, preemergence, scale 0 (no effect) to 100 (complete control), read-out: Galium plant response rating) | pest or weed control at 500 g/ha (pigweed [2]; [6]) | pest or weed control at 125 g/ha (pigweed [4]; 125 g ai/ha, 0 to 100 scale where 0 is no effect and 100 is complete control, read-out: Plant response rating, Pigweed) | pest or weed control at 500 g/ha (pigweed [4]; 240 h, 500 g ai/ha, 0 to 100 scale, 0 no effect, 100 complete control, read-out: Plant response rating Pigweed)
70%: pest or weed control at 500 g/ha (morningglory; [6])
75%: pest or weed control at 250 g/ha (sedge, umbrella)
15%: pest or weed control at 125 g/ha (yellow nutsedge; 125 g ai/ha, postemergence, read-out: Plant response rating (0 to 100), Nutsedge, Yellow) | pest or weed control at 62 g/ha (yellow nutsedge; Postemergence, 62 g ai/ha, scale 0 to 100 (0 no effect, 100 complete control), read-out: Plant response rating, Nutsedge, Yellow)
